Test results: US11071735B2, “Treatment of inflammatory conditions and autoimmune diseases with glucose uptake inhibitors” (Kadmon Corporation, LLC, priority 2017, dated 2021)

What was measured:
GLUT = experiment: glycolysis assay (oligomycin + Cell Titer-Glo ATP readout) in HT1080 cells; assay type: cell-based; conditions: 10 μM oligomycin, one hour, glycolytically-derived ATP
Outline: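 HT1080 cells exposed for one hour to compound plus 10 μM oligomycin to block mitochondrial ATP, so remaining ATP reflects glycolysis. Glycolytic ATP read by CellTiter-Glo luminescence; IC50 derived from dose-response curves.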

GLUT1 = molecular target: T1, GLUT1 (Homo sapiens, UniProt P11166); experiment: glycolysis assay in DLD1 WT cells (rely on GLUT1); assay type: cell-based; conditions: DLD1-WT cells; 10 μM oligomycin, one hour
T1 construct: endogenous in cells; host or cells: DLD1 WT cancer cells
T1 sequence (P11166 1-492): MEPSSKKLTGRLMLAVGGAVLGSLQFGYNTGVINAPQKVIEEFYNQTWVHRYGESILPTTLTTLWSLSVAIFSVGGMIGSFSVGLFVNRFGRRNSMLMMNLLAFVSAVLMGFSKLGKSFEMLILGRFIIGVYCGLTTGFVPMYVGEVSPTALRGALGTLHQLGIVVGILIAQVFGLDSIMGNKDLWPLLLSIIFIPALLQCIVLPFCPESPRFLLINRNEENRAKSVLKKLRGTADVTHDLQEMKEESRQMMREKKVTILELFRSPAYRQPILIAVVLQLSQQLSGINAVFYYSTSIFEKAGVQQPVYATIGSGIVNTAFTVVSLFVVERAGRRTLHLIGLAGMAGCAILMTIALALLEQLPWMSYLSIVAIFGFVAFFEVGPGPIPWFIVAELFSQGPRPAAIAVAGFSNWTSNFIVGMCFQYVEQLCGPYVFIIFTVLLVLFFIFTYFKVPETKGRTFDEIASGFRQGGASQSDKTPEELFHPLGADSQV
Outline: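 Cells […] exposed for 1 h to inhibitor plus 10 μM oligomycin to block mitochondrial ATP; remaining glycolytic ATP read by CellTiter-Glo luminescence. IC50 derived from dose-response curves.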

[1] = tested on: markers of Teff and Treg cells; experiment: flow cytometry of cytokines and lineage transcription factors in activated CD4 T cells; assay type: cell-based, human; conditions: 1 μM; CD4 T cells activated 48 hrs with IL-1β, TGF-β
Protocol: FIG. 7. […] FIG. 7A. CD4 T cells were activated for 48 hrs in the presence of IL-1β, TGF-β and 1 μM of the Example 2 compound. For the last 5 hrs, PMA/Ionomycin/Brefeldin A was added and intracellular staining for cytokines was performed. Flow cytometry was used to assess INFγ and IL-17A levels (gated on live cells). FIG. 7B. Cells were cultured and treated as in FIG. 7A, excluding PMA/Ionomycin/Brefeldin A treatment. Flow cytometry was used to assess levels of CD4 T cell lineage defining transcription factors.
GLUT1 and GLUT3 inhibitors downregulate the markers of T effector cells but not T regulatory cells. In, CD4 T cells were activated for 48 hrs in the presence of […], TGF-β and 1 μM of compound Example 2. […] Flow cytometry was used to assess INFγ and IL-17A levels (gated on live cells) and quantification of percent positive cells positive is shown in FIG. 7A. […]
T cell assays: Human CD4 T cells were purified using RossetteSep Human CD4 T cell Enrichment Cocktail. […] IL-17 levels were measured by ELISA (R&D systems, Human IL-17 Quantikine ELISA kit). Proliferation was measured by Cell Titer Glo (Promega). Intracellular staining was performed and analyzed using the Guava EasyCyte flow cytometer. […] Protein levels and phosphorylation status were assessed by western blot analysis using antibodies purchased from Cell Signaling.

In the case of `CCOc1ccc2nc(-c3cccc(OCC(=O)NC(C)C)c3)nc(Nc3ccc(-c4cn[nH]c4)cc3)c2c1` [Ex. 2, 2-(3-(4-((4-(1H-pyrazol-4-yl)phenyl)amino)-6-ethoxyquinazolin-2-yl)phenoxy)-N-isopropylacetamide], the IC50 (GLUT) is reported as 149 nM, the IC50 (GLUT1) is reported as 115 nM and the “markers of Teff and Treg cells” value [1] is reported as “downregulate markers of Teff but not Treg cells”.
